Measured values as given in patent publication US12655107B2 (The United States of America, as represented by the …, priority 2018, dated 2026).

How the values were obtained:
pBR322 DNA = experiment: Top1-mediated unwinding assay; type: biochemical; details: supercoiled or relaxed pBR322 DNA, excess Top1, 19a up to 9 μM
Procedure: The binding of classical DNA intercalators between the base pair of circular DNA produce Top1-mediated unwinding effect, thereby antagonizing Top1-mediated DNA relaxation. […]. […] […]. The reaction mixture (20 μL) contained supercoiled or relaxed pBR322 DNA (0.5 μg), tested compounds and excess Top1 (10 units) in relaxing buffer (10 mM Tris, pH 7.5, 0.1 mM EDTA, 5 mM MgCl2, 50 mM KCl, 1 mM DTT, 15 μg/mL acetylated BSA). The DNA was incubated with the tested compounds at room temperature for 10 min prior to the addition of Top1. After being incubated for 30 min at 37° C., the reaction was terminated by the addition of […] loading buffer. The results were analyzed using 1% agarose gel in TAE buffer at 5 V/cm. The gel was stained with gel red and visualized with a UV transilluminator.

[1] = test system: γH2AX foci in HCT116 cells; experiment: γH2AX detection by immunofluorescence; type: cell-based, human; details: HCT116, 1 μM, 3 h
Procedure: To evaluate the DNA damaging effect of 50 in cancer cells, γH2AX foci were assessed by immunofluorescence microscopy in human […] HCT116 cells. After incubation with the compounds for 3 h, the HCT116 cells were stained with γH2AX antibodies.
HCT116 cells (2×10^4 cells/mL) were grown in culture medium and treated with compounds for 3 h at 37° C. […] Cells were permeabilized with 0.5% Triton X-100 in PBS at 0° C. for 30 min. Dish was blocked with 5% goat serum/PBS at 37° C. for 3 h. […] The dishes were again washed six times with blocking buffer. Digital images were recorded using an LSM710 microscope (Zeiss, Germany) and analyzed with ZEN software.

HCT116 cells = experiment: Flow cytometry apoptosis assay; type: cell-based, human; details: HCT116, 24 h, 0.5, 1 and 2 μM
Procedure: To evaluate the induction of apoptosis by 50, flow cytometry assays were performed in HCT116 cells.
The stained cells were analyzed by using flow cytometry (BD, FACSCalibur, USA) within I h. The experiments were repeated three times independently.

[2] = Pharmacokinetic study in rat; details: SD rats, i.g. 5 mg/kg
Procedure: The SD rats were divided into two groups (n=3) and treated by intravenous injection (i.v.) at 1 mg/kg dose and intragastrical administration (i.g.) at 5 mg/kg dose, respectively.
A pharmacokinetic (PK) study in vivo of 50 was performed in Sprague-Dawley (SD) rats. The SD rats were randomly divided into two groups […] and treated by intravenous injection (iv) at 1 mg/kg dose or an intragastrical administration (ig) at 5 mg/kg dose, respectively. Plasma samples were collected postdosing and the concentration of 50 was measured.
Plasma samples (100 μL) were obtained after centrifugation for 10 min at 3000 rpm and stored at −20° C. until used for analysis. The plasma was detected through LC-MS-MS.

HCT116 xenograft = experiment: In vivo antitumor activity, HCT116 xenograft; details: HCT116 xenograft
Tdp1 [3] = molecular target: T1, Tdp1 (Homo sapiens, UniProt Q9NUW8); details: reported in the background; cited from earlier work
T1 sequence (Q9NUW8 whole entry): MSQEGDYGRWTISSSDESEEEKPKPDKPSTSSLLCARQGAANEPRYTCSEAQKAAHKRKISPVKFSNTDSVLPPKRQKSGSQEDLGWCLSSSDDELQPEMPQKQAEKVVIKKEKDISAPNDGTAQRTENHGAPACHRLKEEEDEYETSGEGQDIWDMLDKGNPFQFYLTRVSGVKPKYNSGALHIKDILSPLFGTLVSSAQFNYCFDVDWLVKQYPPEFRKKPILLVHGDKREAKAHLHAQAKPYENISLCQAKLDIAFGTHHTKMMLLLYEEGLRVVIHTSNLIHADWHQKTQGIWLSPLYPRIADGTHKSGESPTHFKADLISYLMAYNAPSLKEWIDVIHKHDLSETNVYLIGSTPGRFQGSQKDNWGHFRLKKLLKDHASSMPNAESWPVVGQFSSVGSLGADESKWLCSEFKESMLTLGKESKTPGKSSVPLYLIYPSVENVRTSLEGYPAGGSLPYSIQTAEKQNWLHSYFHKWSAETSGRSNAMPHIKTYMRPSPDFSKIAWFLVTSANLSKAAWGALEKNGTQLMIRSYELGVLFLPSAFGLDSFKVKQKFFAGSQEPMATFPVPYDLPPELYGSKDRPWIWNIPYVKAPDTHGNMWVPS

Top1 = molecular target: T2, Top1 (Homo sapiens, UniProt P11387); experiment: Top1-mediated DNA cleavage assay; type: biochemical; details: semi-quantitative score relative to CPT (1) at 1 μM; tested at 0.1-100 μM
T2 sequence (P11387 1-765): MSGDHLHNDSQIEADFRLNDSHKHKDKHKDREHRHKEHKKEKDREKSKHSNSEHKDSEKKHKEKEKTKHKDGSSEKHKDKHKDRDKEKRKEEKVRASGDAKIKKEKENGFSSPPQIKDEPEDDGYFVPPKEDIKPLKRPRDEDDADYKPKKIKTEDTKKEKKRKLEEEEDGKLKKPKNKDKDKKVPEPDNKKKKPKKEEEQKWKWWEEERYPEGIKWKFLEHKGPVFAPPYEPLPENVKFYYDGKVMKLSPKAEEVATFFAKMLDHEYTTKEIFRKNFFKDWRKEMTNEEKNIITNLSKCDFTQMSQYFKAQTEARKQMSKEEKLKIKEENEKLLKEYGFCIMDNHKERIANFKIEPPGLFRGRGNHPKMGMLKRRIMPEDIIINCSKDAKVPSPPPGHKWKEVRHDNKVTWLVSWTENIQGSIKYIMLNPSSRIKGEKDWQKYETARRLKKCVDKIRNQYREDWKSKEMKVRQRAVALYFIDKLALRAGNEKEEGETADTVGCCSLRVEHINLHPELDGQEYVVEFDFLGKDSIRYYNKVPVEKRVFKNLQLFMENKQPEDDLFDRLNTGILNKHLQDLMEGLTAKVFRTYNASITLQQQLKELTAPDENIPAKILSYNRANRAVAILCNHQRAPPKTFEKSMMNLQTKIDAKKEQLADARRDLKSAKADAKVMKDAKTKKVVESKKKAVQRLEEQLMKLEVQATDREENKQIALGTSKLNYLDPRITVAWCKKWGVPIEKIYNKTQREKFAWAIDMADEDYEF

Tdp1 [4] = molecular target: T1, Tdp1; experiment: Tdp1 inhibition fluorescence assay; type: biochemical; details: compounds at 100 μM
Procedure: Tdp Inhibition. […] The compounds were tested at 100 μM concentration. […] Fluorescence assay. […] Tdp1 solution (20 μL/well, 0.02 μL purified Tdp1 (100 nM) in 10 mM Tris-HCl, pH 7.5, 50 mM KCL, I mM EDTA, 1 mM DTT) was dispensed into wells of a white 384-well plate (NEST). The tested compound solution in DMSO (5 μL) was pinned into assay plates and incubated at room temperature for 30 min. […] Tdp percentage inhibition of the tested compounds was calculated by comparing the rate of increase in fluorescence throughout time for the compound-treated wells to that of DMSO control wells.

F10T dsDNA = experiment: FRET melting assay; type: binding; details: compounds at 2 μM
Procedure: It was reported that nitidine can intercalate into double-stranded DNA (dsDNA) and inhibit Top1. […] The DNA intercalator 49 was used as positive control.
FRET melting assay was carried out on a real-time PCR apparatus as the following methods. […] In the experiment, the annealed oligonucleotide (final concentration of 0.4 μM) were incubated with the tested compounds (2 μM) in a total reaction volume of Tris-HCl buffer (10 mM, pH 7.4) containing 60 mM KCl at 37° C. for 0.5 h. Fluorescence melting curves were determined with a Roche LightCycler 2 real-time PCR machine with excitation at 470 nm and detection at 530 nm.

HCT116 = experiment: MTT cytotoxicity assay, HCT116; type: cell-based, human; details: 72 h, Table 1b, read-out: GI50 (μM) HCT116
Procedure: (§1) Cytotoxicity Assays. […] The cells were incubated with the tested compounds for 72 hours in a five-dose assay ranging from 0.01 to 100 μM concentration. After drug treatments, MTT solution was added to test the percentage growth of tumor cells.
(§2) The compounds were incubated with the cells for 72 hours in a five-dose assay ranging from 0.01 to 100 μM concentration. At the end of the incubation, the MTT solution was added to test the percentage growth of tumor cells.
(§3) For the drug treatment experiments, the cancer cells were treated with the compounds (predissolved in DMSO) at a five-dose assay ranging from 0.01 to 100 μM concentration. […] After 4 h incubation, the formazan crystal formed in the well was dissolved with […] of DMSO for optical density reading at 570 nm. The GI50 value was calculated by nonlinear regression analysis (GraphPad Prism).

CCRF-CEM = experiment: MTT cytotoxicity assay, CCRF-CEM; type: cell-based, human; details: 72 h, Table 1b
Procedure: as §1, §3

DU145 = experiment: MTT cytotoxicity assay, DU145; type: cell-based, human; details: 72 h, Table 1b, read-out: GI50 (μM) DU145
Procedure: as §1, §2, §3

A549 = experiment: MTT cytotoxicity assay, A549; type: cell-based, human; details: 72 h, Table 1b, read-out: GI50 (μM) A549
Procedure: as §1, §2, §3

Huh7 = experiment: MTT cytotoxicity assay, Huh7; type: cell-based, human; details: 72 h, Table 1b
Procedure: as §1, §3

With COc1cc2c(=O)n(CCN(C)C)c3c4cc5c(cc4ccc3c2cc1OC)OCO5 [Compound 19a, 12-(2-(Dimethylamino)ethyl)-2,3-dimethoxy-[1,3]dioxolo[4′,5′:4,5]benzo[1,2-c]phenanthridin-13(12H)-one] as the compound, how does the Top1-mediated unwinding effect (pBR322 DNA) read?
Its Top1-mediated unwinding effect is “no Top1-mediated unwinding effect”.

And the γH2AX foci [1]?
Its γH2AX foci is “γH2AX foci were induced”.

And the induction of apoptosis (HCT116 cells)?
The induction of apoptosis was “significantly induce HCT116 cells apoptosis in a dose-dependent manner”.

And the “Tmax” value [2]?
The value was 1.17 ± 0.76 h.

What about the body weight (HCT116 xenograft; 5 mg/kg i.p. daily) of the same compound?
The body weight was “no obvious body loss”.

What about the body weight (HCT116 xenograft; 10 mg/kg i.p. daily) of the same compound?
Its body weight is “Body weight loss was found”.

And the tumor volume (HCT116 xenograft; i.p. once every day)?
The tumor volume was “significantly reduced tumor volume in a dose-dependent manner”.

With [Na+].[Na+].[Na+].[O]=[V]([O-])([O-])[O-] [sodium orthovanadate] as the compound, how does the Tdp1 inhibition (Tdp1 [3]) read?
The Tdp1 inhibition was “inhibition only at millimolar concentration”.

Which results are given for COc1cc2c(cc1OC)-c1ccc3cc4c(cc3c1N(CCN(C)C)C2)OCO4 [Compound 26a, 2-(2,3-Dimethoxy-[1,3]dioxolo[4′,5′:4,5]benzo[1,2-c]phenanthridin-12(131)-yl)-N,N-dimethylethan-1-amine]?
TOP1 inhibition (Top1): + (+, between 20% and 50% activity); TDP1 inhibition (Tdp1 [4]): 0%; ΔTm (°C.) F10T (F10T dsDNA): 1.0 °C; GI50 (HCT116): 7.36 ± 3.55 µM; GI50 (CCRF-CEM): 0.95 ± 0.14 µM; GI50 (μM) CCRF-CEM (CCRF-CEM): submicromolar concentration; GI50 (DU145): 1.93 ± 0.41 µM; GI50 (A549): 6.68 ± 1.93 µM; GI50 (Huh7): 7.78 ± 2.91 µM
